Measurements as given in patent US6534447B1, “Herbicidal pyridine compounds” (BASF Aktiengesellschaft, priority 1999, dated 2003).

Tests used:
Format in all cases: in vivo
[1] = system: Setaria viridis (SETVI, green foxtail); test: Post-emergence herbicidal evaluation; conditions: 3 weeks after treatment
Experimental: (§1) These acetone solutions are diluted with water and the resulting formulations applied at dosage levels equivalent of about 0.025 to 0.4 kg per hectare of test compound per pot. After spraying the plants are placed on greenhouse benches and are cared for in the usual manner, commensurate with conventional greenhouse practices. From 3 weeks after treatment, the seedling plants are examined and rated according to the rating system provided above. A rating 0 indicates growth as untreated control, a rating 9 indicates death.

[2] = system: Stellaria media (STEME, chickweed); test: Post-emergence herbicidal evaluation; conditions: 3 weeks after treatment
Experimental: as §1

[3] = system: Echinochloa grus galli (ECHCG, barnyard grass); test: Post-emergence herbicidal evaluation; conditions: 3 weeks after treatment
Experimental: as §1

[4] = system: Alopecurus myosuroides (ALOMY, black grass); test: Post-emergence herbicidal evaluation; conditions: 3 weeks after treatment
Experimental: as §1

[5] = system: Abutilon theophrasti (ABUTH, velvetleaf); test: Post-emergence herbicidal evaluation; conditions: 3 weeks after treatment
Experimental: as §1

[6] = system: Ipomoea hederacea (IPOHE, morning glory); test: Post-emergence herbicidal evaluation; conditions: 3 weeks after treatment
Experimental: as §1

[7] = system: Galium aparine (GALAP, cleaver); test: Post-emergence herbicidal evaluation; conditions: 3 weeks after treatment
Experimental: as §1

[8] = system: Dolium multiflorum (LOLMU, ryegrass); test: Post-emergence herbicidal evaluation; conditions: rate 0.100 kg/ha, 3 weeks after treatment
Experimental: as §1

[9] = system: Matricaria inodora (MATIN, mayweed); test: Post-emergence herbicidal evaluation; conditions: 3 weeks after treatment
Experimental: as §1

[10] = system: Setaria viridis (SETVI, green foxtail); test: Pre-emergence herbicidal evaluation; conditions: 3 weeks after treatment
Source text: (§2) The pre-emergence herbicidal activity of the compounds of the present invention is exemplified by the following test in which the seeds of a variety of monocotyledonous and dicotyledonous plants are seperately mixed with potting soil and planted on top of approximately one inch of soil in separate post. After planting, the pots are sprayed with the selected aqueous acetone solution. containing test compound in sufficient quantity to provide the equivalent of about 0.025 to 0.4 kg per hectare of test compound per pot. The treated pots are then placed on greenhouse benches, watered and cared for in accordance with conventional greenhouse procedures. From 3 weeks after treatment, the tests are terminated and each pot is examined and rated according to the rating system set forth below. [table] [table]

[11] = system: Stellaria media (STEME, chickweed); test: Pre-emergence herbicidal evaluation; conditions: 3 weeks after treatment
Source text: as §2

[12] = system: Echinochloa grus galli (ECHCG, barnyard grass); test: Pre-emergence herbicidal evaluation; conditions: 3 weeks after treatment
Source text: as §2

[13] = system: Alopecurus myosuroides (ALOMY, black grass); test: Pre-emergence herbicidal evaluation; conditions: 3 weeks after treatment
Source text: as §2

[14] = system: Abutilon theophrasti (ABUTH, velvetleaf); test: Pre-emergence herbicidal evaluation; conditions: 3 weeks after treatment
Source text: as §2

[15] = system: Ipomoea hederacea (IPOHE, morning glory); test: Pre-emergence herbicidal evaluation; conditions: 3 weeks after treatment
Source text: as §2

[16] = system: Galium aparine (GALAP, cleaver); test: Pre-emergence herbicidal evaluation; conditions: 3 weeks after treatment
Source text: as §2

[17] = system: Matricaria inodora (MATIN, mayweed); test: Pre-emergence herbicidal evaluation; conditions: 3 weeks after treatment
Source text: as §2

[18] = system: Triticum aestivum (TRZAW, winter wheat); test: Pre-emergence herbicidal evaluation (crop); conditions: 3 weeks after treatment
Source text: as §2

[19] = system: Glycine max (GLXMA, soyabeans); test: Pre-emergence herbicidal evaluation (crop); conditions: 3 weeks after treatment
Source text: as §2

Zea mays (ZEAMX, maize) = test: Pre-emergence herbicidal evaluation (crop); conditions: 3 weeks after treatment
Source text: as §2

Cc1cc(OCCC(Cl)SC(F)(F)F)nc(Oc2cc(C(F)(F)F)nn2C)c1 (centres unmarked) [Example 3, 2-(1-Methyl-3-trifluoromethylpyrazol-5-yloxy)-4-methyl-6-(3-chloro-3-trifluoromethylthiopropyloxy)pyridine]
3 (3 - Moderate effect): TRZAW rating ([18]; rate 0.400 kg/ha) | ZEAMX rating (Zea mays (ZEAMX, maize); rate 0.400 kg/ha)
9 (9 - Complete kill): SETVI rating ([1]; rate 0.100 kg/ha) | SETVI rating ([1]; rate 0.400 kg/ha) | ECHCG rating ([3]; rate 0.400 kg/ha) | IPOHE rating ([6]; rate 0.025 kg/ha) | IPOHE rating ([6]; rate 0.100 kg/ha) | IPOHE rating ([6]; rate 0.400 kg/ha) | SETVI rating ([10]; rate 0.100 kg/ha) | SETVI rating ([10]; rate 0.400 kg/ha) | STEME rating ([11]; rate 0.025 kg/ha) | STEME rating ([11]; rate 0.100 kg/ha) | STEME rating ([11]; rate 0.400 kg/ha) | IPOHE rating ([15]; rate 0.100 kg/ha) | IPOHE rating ([15]; rate 0.400 kg/ha) | MATIN rating ([17]; rate 0.100 kg/ha) | MATIN rating ([17]; rate 0.400 kg/ha)
1 (1 - Trace effect): TRZAW rating ([18]; rate 0.025 kg/ha) | GLXMA rating ([19]; rate 0.025 kg/ha) | GLXMA rating ([19]; rate 0.100 kg/ha)
5 (5 - Definite injury): STEME rating ([2]; rate 0.100 kg/ha) | ALOMY rating ([4]; rate 0.025 kg/ha) | ABUTH rating ([5]; rate 0.025 kg/ha) | MATIN rating ([9]; rate 0.025 kg/ha) | ALOMY rating ([13]; rate 0.025 kg/ha) | ABUTH rating ([14]; rate 0.025 kg/ha) | ABUTH rating ([14]; rate 0.100 kg/ha)
4 (4 - Injury): STEME rating ([2]; rate 0.025 kg/ha) | ECHCG rating ([12]; rate 0.025 kg/ha)
7 (7 - Good herbicidal effect): ALOMY rating ([4]; rate 0.100 kg/ha) | ALOMY rating ([4]; rate 0.400 kg/ha) | ABUTH rating ([5]; rate 0.100 kg/ha) | ABUTH rating ([5]; rate 0.400 kg/ha) | MATIN rating ([9]; rate 0.400 kg/ha) | ABUTH rating ([14]; rate 0.400 kg/ha) | IPOHE rating ([15]; rate 0.025 kg/ha) | GALAP rating ([16]; rate 0.100 kg/ha) | GALAP rating ([16]; rate 0.400 kg/ha)
2 (2 - Slight effect): GALAP rating ([16]; rate 0.025 kg/ha) | TRZAW rating ([18]; rate 0.100 kg/ha) | GLXMA rating ([19]; rate 0.400 kg/ha) | ZEAMX rating (Zea mays (ZEAMX, maize); rate 0.025 kg/ha) | ZEAMX rating (Zea mays (ZEAMX, maize); rate 0.100 kg/ha)
6 (6 - Herbicidal effect): STEME rating ([2]; rate 0.400 kg/ha) | ECHCG rating ([3]; rate 0.025 kg/ha) | MATIN rating ([9]; rate 0.100 kg/ha) | ECHCG rating ([12]; rate 0.100 kg/ha)
8 (8 - Approaching complete kill): SETVI rating ([1]; rate 0.025 kg/ha) | ECHCG rating ([3]; rate 0.100 kg/ha) | GALAP rating ([7]; rate 0.025 kg/ha) | GALAP rating ([7]; rate 0.100 kg/ha) | GALAP rating ([7]; rate 0.400 kg/ha) | LOLMU rating [8] | SETVI rating ([10]; rate 0.025 kg/ha) | ECHCG rating ([12]; rate 0.400 kg/ha) | ALOMY rating ([13]; rate 0.100 kg/ha) | ALOMY rating ([13]; rate 0.400 kg/ha) | MATIN rating ([17]; rate 0.025 kg/ha)

Cc1cc(OCC=C(Cl)SC(F)(F)F)nc(Oc2cc(C(F)(F)F)nn2C)c1 [Example 5]
6 (6 - Herbicidal effect): ALOMY rating ([4]; rate 0.025 kg/ha) | MATIN rating ([9]; rate 0.025 kg/ha) | ECHCG rating ([12]; rate 0.025 kg/ha) | TRZAW rating ([18]; rate 0.400 kg/ha)
7 (7 - Good herbicidal effect): STEME rating ([2]; rate 0.400 kg/ha) | ECHCG rating ([3]; rate 0.025 kg/ha) | ALOMY rating ([4]; rate 0.100 kg/ha) | ABUTH rating ([5]; rate 0.025 kg/ha) | GALAP rating ([7]; rate 0.025 kg/ha) | MATIN rating ([9]; rate 0.100 kg/ha) | MATIN rating ([9]; rate 0.400 kg/ha) | ALOMY rating ([13]; rate 0.025 kg/ha) | GALAP rating ([16]; rate 0.100 kg/ha) | GALAP rating ([16]; rate 0.400 kg/ha)
2 (2 - Slight effect): TRZAW rating ([18]; rate 0.025 kg/ha) | GLXMA rating ([19]; rate 0.025 kg/ha) | GLXMA rating ([19]; rate 0.100 kg/ha) | ZEAMX rating (Zea mays (ZEAMX, maize); rate 0.025 kg/ha)
3 (3 - Moderate effect): TRZAW rating ([18]; rate 0.100 kg/ha) | GLXMA rating ([19]; rate 0.400 kg/ha) | ZEAMX rating (Zea mays (ZEAMX, maize); rate 0.100 kg/ha)
9 (9 - Complete kill): SETVI rating ([1]; rate 0.025 kg/ha) | SETVI rating ([1]; rate 0.100 kg/ha) | SETVI rating ([1]; rate 0.400 kg/ha) | IPOHE rating ([6]; rate 0.025 kg/ha) | IPOHE rating ([6]; rate 0.100 kg/ha) | IPOHE rating ([6]; rate 0.400 kg/ha) | SETVI rating ([10]; rate 0.100 kg/ha) | SETVI rating ([10]; rate 0.400 kg/ha) | STEME rating ([11]; rate 0.025 kg/ha) | STEME rating ([11]; rate 0.100 kg/ha) | STEME rating ([11]; rate 0.400 kg/ha) | ECHCG rating ([12]; rate 0.400 kg/ha) | IPOHE rating ([15]; rate 0.100 kg/ha) | IPOHE rating ([15]; rate 0.400 kg/ha) | MATIN rating ([17]; rate 0.400 kg/ha)
8 (8 - Approaching complete kill): ECHCG rating ([3]; rate 0.100 kg/ha) | ECHCG rating ([3]; rate 0.400 kg/ha) | ALOMY rating ([4]; rate 0.400 kg/ha) | ABUTH rating ([5]; rate 0.100 kg/ha) | ABUTH rating ([5]; rate 0.400 kg/ha) | GALAP rating ([7]; rate 0.100 kg/ha) | GALAP rating ([7]; rate 0.400 kg/ha) | LOLMU rating [8] | SETVI rating ([10]; rate 0.025 kg/ha) | ECHCG rating ([12]; rate 0.100 kg/ha) | ALOMY rating ([13]; rate 0.100 kg/ha) | ALOMY rating ([13]; rate 0.400 kg/ha) | ABUTH rating ([14]; rate 0.100 kg/ha) | ABUTH rating ([14]; rate 0.400 kg/ha) | IPOHE rating ([15]; rate 0.025 kg/ha) | MATIN rating ([17]; rate 0.025 kg/ha) | MATIN rating ([17]; rate 0.100 kg/ha)
4 (4 - Injury): STEME rating ([2]; rate 0.025 kg/ha) | ZEAMX rating (Zea mays (ZEAMX, maize); rate 0.400 kg/ha)
5 (5 - Definite injury): STEME rating ([2]; rate 0.100 kg/ha) | ABUTH rating ([14]; rate 0.025 kg/ha) | GALAP rating ([16]; rate 0.025 kg/ha)
